{
  "source": "paper PMC9029323",
  "about": "“In Silico Identification of Novel Inhibitors Targeting the Homodimeric Interface of Superoxide Dismutase from the Dental Pathogen Streptococcus mutans” (Antioxidants, 2022)",
  "key": {"[1]": {"target": "T1, SmSOD homodimer (Streptococcus mutans serotype c, UniProt P09738)", "T1 construct": "His-tail; made in house; host or cells: Escherichia coli BL21(DE3), vector vSmSOD (pET-22b(+)-derived)", "T1 sequence (P09738 2-203)": "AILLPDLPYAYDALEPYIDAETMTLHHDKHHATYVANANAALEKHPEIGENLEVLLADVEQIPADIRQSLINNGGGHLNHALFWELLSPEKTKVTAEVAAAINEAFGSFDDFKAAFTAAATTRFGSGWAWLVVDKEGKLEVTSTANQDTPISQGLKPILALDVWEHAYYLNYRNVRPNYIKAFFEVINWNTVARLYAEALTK", "assay": "Size exclusion chromatography (gel-filtration) of SmSOD", "procedure": "The oligomerization status of SmSOD was analyzed by gel-filtration on a Superdex^TM 75 10/300 GL column (GE Healthcare) connected to an FPLC^TM system. The column was equilibrated and eluted at 0.5 mL/min at room temperature (20–24 °C) with a 20 mM Tris•HCl buffer, pH 7.8, containing 150 mM KCl and 1% (v/v) DMSO. However, where indicated, the equilibration and elution buffer also contained 200 µM inhibitor. The protein molecular mass standards used for calibration of the size exclusion chromatography were bovine serum albumin (68 kDa), egg albumin (46 kDa), carbonic anhydrase (30 kDa) and cytochrome c (12.4 kDa).\nFigure 4 Effect of ALS-31 on gel-filtration of SmSOD. A protein sample of SmSOD, 63 µM in 20 mM Tris•HCl buffer, pH 7.8, supplemented with 150 mM KCl and 1% (v/v) DMSO, was untreated or incubated at room temperature for 20 min with 200 µM ALS-31. The protein sample was then loaded on a Superdex 75 10/300 column and the elution profile was followed by a continuous absorbance monitoring at 280 nm. Untreated SmSOD (black line); SmSOD incubated with 200 µM ALS-31 without (green line) or after the addition of 200 µM ALS-31 in the elution buffer (red line). The elution volumes of bovine serum albumin (9.56 mL), egg albumin (10.44 mL), carbonic anhydrase (11.72 mL) and cytochrome c (13.51 mL), used as standard protein markers, are indicated by inverted triangles. Their position was unaffected by the addition of ALS-31 in equilibration and elution buffer."}, "[2]": {"tested_on": "fibroblast cell line BJ-5ta", "assay": "Colony-forming assay", "format": "cell-based, human", "conditions": "up to 100 µM", "procedure": "The cell line BJ-5ta, a human skin fibroblast immortalised with the human telomerase reverse transcriptase (Cell Culture Facility of CEINGE, Naples, Italy), was cultured in a 4:1 mixture of DMEM and Medium 199 supplemented with 4 mM L-glutamine, 4.5 g/L glucose, 1.5 g/L sodium bicarbonate, 10% FBS, 100 IU/mL penicillin G and […] streptomycin in a humidified incubator at 37 °C under 5% CO2 atmosphere. Cells were split and seeded every 3 days and used during their exponential phase of growth. Cell treatments were usually carried out after 24 h from plating. To obtain total protein extracts from BJ5-ta, cells were seeded into six-well plates (3 × 10^5 cells/plate) for 24 h at 37 °C and then treated with ALS-31 or 0.5% (v/v) DMSO. After treatment, cells were harvested, washed with PBS and then lysed in ice-cold modified radio immunoprecipitation assay (RIPA) buffer (50 mM Tris•HCl, pH 7.4, 150 mM NaCl, 1% Nonidet P-40, 0.25% sodium deoxycholate, 1 mM Na3VO4 and 1 mM NaF), supplemented with protease inhibitors and incubated for 30 min on ice. […]\nA colony-forming assay was performed as previously described, with some modifications. […] Cells were photographed with a digital camera (Canon PowerShot G9); the number of colonies (≥50 cells per colony) was counted using ImageJ 1.42q software."}, "[3]": {"target": "T2, Mn–SOD from rat mitochondria (Rattus norvegicus, UniProt P07895)", "T2 construct": "made in house", "T2 sequence (P07895 25-222)": "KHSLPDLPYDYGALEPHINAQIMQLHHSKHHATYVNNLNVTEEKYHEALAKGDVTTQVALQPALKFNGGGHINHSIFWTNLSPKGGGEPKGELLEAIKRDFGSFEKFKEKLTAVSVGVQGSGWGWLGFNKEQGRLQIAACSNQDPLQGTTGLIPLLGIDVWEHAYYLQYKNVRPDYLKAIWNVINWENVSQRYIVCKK", "assay": "SOD activity assay with Mn-SOD", "format": "biochemical", "source_text": "(§1) Purified recombinant forms of SmSOD and StSOD were obtained through a heterologous expression system constituted by the Escherichia coli BL21(DE3) strain transformed with appropriate expression vectors, vSmSOD [11] or vStSOD [12]. These pET-22b(+)- or pET-28b(+)-derived plasmids led to the production of recombinant forms of SmSOD or StSOD, respectively fused to a His-tail, useful for their one-step purification by affinity chromatography, as previously described [11, 12]. The improvement of Mn uptake by SmSOD was realised as previously described [11, 12, 13]. The resulting metal (Fe and Mn) content in the cambialistic enzyme was determined by graphite furnace atomic absorption spectrometry with a Shimadzu ACS-6100 auto sampler [46]. Fe-SOD from Escherichia coli (cat. SRP6107) and the Cu/Zn-SOD from bovine erythrocytes (cat. 574594) were purchased from Sigma–Aldrich. A recombinant form of the eukaryal Mn–SOD from rat mitochondria was prepared as previously described [19]. Protein concentration was determined by the Bradford method, using bovine serum albumin as standard [47]. […] One unit of SOD activity was defined as the amount of enzyme that caused 50% inhibition of cytochrome c reduction."}, "[4]": {"target": "T3, Cu/ZnSOD from bovine erythrocytes (Bos taurus, UniProt P00442)", "T3 construct": "the Cu/Zn-SOD from bovine erythrocytes (cat. 574594) were purchased from Sigma–Aldrich; purchased Sigma–Aldrich 574594; host or cells: bovine erythrocytes", "T3 sequence (P00442 whole entry)": "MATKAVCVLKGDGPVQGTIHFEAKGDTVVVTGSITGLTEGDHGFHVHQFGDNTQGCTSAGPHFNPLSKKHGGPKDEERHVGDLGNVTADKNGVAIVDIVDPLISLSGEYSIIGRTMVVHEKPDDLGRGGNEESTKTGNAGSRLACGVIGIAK", "assay": "SOD activity assay with Cu/Zn-SOD", "format": "biochemical", "source_text": "as §1"}, "[5]": {"target": "T4, SmSOD (Streptococcus mutans serotype c, UniProt P09738)", "T4 construct": "His-tail; made in house; host or cells: Escherichia coli BL21(DE3), vector vSmSOD (pET-22b(+)-derived)", "T4 sequence (P09738 2-203)": "as the sequence (P09738 2-203) above", "assay": "SOD activity assay (inhibition of cytochrome c reduction, xanthine/xanthine oxidase method) with SmSOD", "format": "biochemical", "source_text": "as §1"}, "[6]": {"target": "cambialistic StSOD (Streptococcus thermophilus, UniProt Q5M4Z1)", "sequence (Q5M4Z1 entry or part of it)": "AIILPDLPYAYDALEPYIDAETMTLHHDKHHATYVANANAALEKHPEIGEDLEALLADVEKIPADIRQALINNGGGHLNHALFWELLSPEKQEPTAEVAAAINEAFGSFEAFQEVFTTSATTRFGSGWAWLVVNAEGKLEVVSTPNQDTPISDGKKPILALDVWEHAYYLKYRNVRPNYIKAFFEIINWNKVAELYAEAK", "assay": "SOD activity assay with StSOD", "format": "biochemical", "source_text": "as §1"}, "[7]": {"target": "T5, Fe-SOD from Escherichia coli (Escherichia coli, UniProt P0AGD3)", "T5 construct": "purchased Sigma–Aldrich SRP6107", "T5 sequence (P0AGD3 2-193)": "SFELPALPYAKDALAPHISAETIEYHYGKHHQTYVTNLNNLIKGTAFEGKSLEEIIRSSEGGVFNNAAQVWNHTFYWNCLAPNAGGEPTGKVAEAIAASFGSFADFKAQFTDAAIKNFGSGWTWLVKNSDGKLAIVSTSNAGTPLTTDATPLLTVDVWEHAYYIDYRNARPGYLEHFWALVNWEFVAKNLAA", "assay": "SOD activity assay with Fe-SOD", "format": "biochemical", "source_text": "as §1"}, "[8]": {"target": "T4, SmSOD", "assay": "Gel electrophoresis of SmSOD under not denaturing conditions", "conditions": "7 to 51 µM protein, preincubation with 488 µM compound; not shown", "excerpt": "The putative reversible interaction between SmSOD and ALS-31 was further investigated through the behaviour of this enzyme in gel electrophoresis. […] Therefore, the reversible and non-covalent interaction between SmSOD and ALS-31 allowed the disassemblage of the enzyme and consequently its inhibition, only when a proper concentration of the inhibitor remained in contact with the enzyme."}},
  "note": "“Also recorded” adds a separate entry of the source. Like-named read-outs stand apart in the source and are kept apart here.",
  "data": [
    {"compound": "CSCCC(NC(=O)COc1ccc2c3c(c(=O)oc2c1)CCCC3)C(=O)NCCC(=O)O", "note": "(stereo not drawn) [ALS-31]", "values": [
      {"measurement": "calculated molecular mass of SmSOD major peak", "setting": "[1]; 200 µM compound in equilibration and elution buffer, untreated SmSOD 51.8 kDa", "result": 23.2, "unit": "kDa"},
      {"measurement": "quaternary structure of SmSOD in gel-filtration", "setting": "[1]; 200 µM compound in protein sample and elution buffer", "result": "dissociation of the SmSOD homodimer in two monomers"},
      {"measurement": "elution of SmSOD compared with untreated sample", "setting": "[1]; SmSOD incubated with 200 µM compound before loading, no compound in elution buffer", "result": "almost identical elution"},
      {"measurement": "toxicity for growth / viability of fibroblast cell line BJ-5ta (colony formation)", "setting": "[2]", "result": "not affected; also recorded: not toxic"},
      {"measurement": "IC50", "setting": "[3]", "result": "161 ± 56", "unit": "µM"},
      {"measurement": "IC50", "setting": "[4]", "result": "146 ± 25", "unit": "µM"},
      {"measurement": "remaining activity at 20 µM", "setting": "[5]; 20 µM compound, activity of SmSOD in the absence of compound equal to 100, read-out: Residual SOD Activity (%) in the Presence of [Compound]", "result": 92, "unit": "%"},
      {"measurement": "remaining activity at 50 µM", "setting": "[5]; 50 µM compound, activity of SmSOD in the absence of compound equal to 100, Table 1, read-out: Residual SOD Activity (%) in the Presence of [Compound]", "result": 71, "unit": "%"},
      {"measurement": "IC50", "setting": "[5]; Mn-basal SmSOD, read-out: IC50 (concentration leading to 50% inhibition of SmSOD activity)", "result": 159, "unit": "µM"},
      {"measurement": "IC50", "setting": "[5]; Mn-enriched SmSOD, basal Mn content 2.7-fold improved after metal exchange, read-out: IC50 in the Mn-enriched enzyme", "result": "262 ± 11", "unit": "µM"},
      {"measurement": "remaining activity at 100 µM", "setting": "[5]; read-out: Residual SOD Activity (%) in the Presence of [Compound]", "result": 56, "unit": "%"},
      {"measurement": "effect on SmSOD activity (in words)", "setting": "[5]; screening concentrations or inhibition profile up to 300 µM", "result": "dose-dependent reduction; also recorded: evident dose-dependent inhibition"},
      {"measurement": "IC50", "setting": "[6]", "result": "218 ± 50", "unit": "µM"},
      {"measurement": "IC50", "setting": "[7]", "result": "123 ± 20", "unit": "µM"},
      {"measurement": "electrophoretic mobility of SmSOD", "setting": "[8]", "result": "no change"}
    ]}
  ]
}
